Where two headings read alike, the source gives them in different places.
How the values were obtained:
[1] = system: PTSD caused by abuse in early childhood; conditions: for Total score (PCL-5): 7% hydrogen gas inhaled, before inhalation score 66
Experimental: (§1) Adult women who had lived for 10 years or longer after the onset of PTSD caused by abuse in early childhood were subjected to inhalation of hydrogen gas with a concentration of 7% by using a hydrogen generator (MHG-2000α, produced by MiZ Company Limited) for at least 1 hour (up to 4 hours) per day over 7 weeks. Each of the subjects had been regularly using an analgesic prescribed by a physician to treat pain, and continued the regular use also during the period of inhalation.
Symptoms of PTSD were quantified through interviews by a physician with the PTSD Checklist for DSM-5 (PCL-5; published by the National Center for PTSD).

[2] = system: PTSD due to an intense psychological shock received in military operations; conditions: for Total score: 7% hydrogen gas inhaled, before inhalation score 49
Experimental: as §1, with “had experienced” for “had lived for 10 years or longer after”, “PTSD due to an intense psychological shock received” for “PTSD caused by abuse”, “in military operations” for “in early childhood”, “least 2 hours” for “least 1 hour”, “over 3” for “over 7”
(§2) Symptoms of PTSD were quantified through interviews by a physician.

[3] = system: PTSD due to physical abuse in early childhood and later stages; conditions: 7% hydrogen gas inhaled, before inhalation score 61
Experimental: Adult women who had experienced the onset of PTSD due to an intense psychological shock received through physical abuse in early childhood and later stages were subjected to inhalation of hydrogen gas with a concentration of 7% by using a hydrogen generator (MHG-2000α, produced by MiZ Company Limited) for 1 to 3 hours per day over 3 weeks. Each of the subjects had been regularly using an analgesic prescribed by a physician to treat pain, and continued the regular use also during the period of inhalation.
as §2

[4] = system: ROS formation in the brains; conditions: 6 days after blast exposure; 4% hydrogen gas 6 hours per day
Experimental: (§3) All animal experiments relating to the present invention were conducted according to the institutional ethical guidelines for animal experiments of the National Defense Medical College and these animal experiments were approved by the Committee for Animal Research at the National Defense Medical College. Inbred C57BL/6 mice were used in this experiment. Age-matched male littermate mice were used in all experiments. The mice were housed in a breeding room with a 12-h light/dark cycle and a room temperature maintained at 24±1° C. The mice had ad libitum access to water and food.
(§4) The mice at 10 weeks of age were anesthetized by intraperitoneal administration of mixed anesthetic agents containing medetomidine hydrochloride (0.3 mg/kg, Domitol, Meiji Seika Pharma Co., Ltd.), midazolam (4.0 mg/kg, Dormice, Astellas Pharma Inc.), and butorphanol (5.0 mg/kg, Vetorphale, Meiji Seika Pharma Co., Ltd.). […] Following blast exposure, mice were allowed to recover from anesthesia and were subsequently returned to their home cage.
(§5) Mice were placed in a humid chamber for hydrogen gas inhalation for 6 hours per day. Hydrogen gas diluted by air (4%) was supplied to the chamber from a hydrogen gas supply apparatus (MiZ Company Limited) at a feeding rate of 2 L/min. The mice had ad libitum access to water and food in the chamber.

[5] = system: mice exposed to blast (bmTBI)
Experimental: as §3, §4, §5
Behavioral analysis was performed 7 days after the blast exposure. All mice used in the behavioral analysis were age-matched male littermates. The behavior of each mouse was monitored and analyzed using a computer-operated video tracking system (SMART, Panlab, Barcelona, Spain), unless otherwise stated. In tests using an apparatus with arms, arm entry was counted when all four legs of a mouse entered each arm. The apparatus was washed after each test. Behavioral studies were performed for mice at 11 to 12 weeks of age.

[6] = system: mice exposed to blast (bmTBI); remark: listed apart in the source
Experimental: as §3, with “food. […]” for “food.”
Behavioral analysis was performed 7 days after the blast exposure. […] The behavior of each mouse was monitored and analyzed using a computer-operated video tracking system (SMART, Panlab, Barcelona, Spain), unless otherwise stated. In tests using an apparatus with arms, arm entry was counted when all four legs of a mouse entered each arm. […]
A sociability test was performed by using a conventional method. Interaction time with another living mouse versus a stuffed mouse was measured in an open field using two cylinder cages allowing olfactory and minimal tactile feelings. […]

[7] = at clinical concentrations, previous studies; cited from earlier work
[8] = 7 days after blast, 4% hydrogen gas 6 hours per day for 7 days, one-way ANOVA p>0.05

Question: Which results are given for `[HH]` [hydrogen gas]?
Answer: Symptoms of PTSD after the initiation of inhalation ([1]; 7% hydrogen gas, 1 to 4 hours per day over 7 weeks): tended to ameliorate; Total score (PCL-5) ([1]; Week 1, average 2.2 H/day): 55; Total score (PCL-5) ([1]; Week 2, average 3.8 H/day): 41; Total score (PCL-5) ([1]; Week 4, average 2.8 H/day): 41; Total score (PCL-5) ([1]; Week 7, average 1.1 H/day): 27; Symptoms of PTSD after the initiation of inhalation ([2]; 7% hydrogen gas, 2 to 4 hours per day over 3 weeks): tended to ameliorate; Total score ([2]; Week 2, average 4 H/day): 16; Total score ([2]; Week 3, average 2 H/day): 12; Total score ([3]; Week 1, average 3 H/day): 62; Total score ([3]; Week 2, average 2 H/day): 60; Total score ([3]; Week 4, average 1 H/day): 49; Total score ([3]; Week 7, average 2 H/day): 53; Total score ([3]; Week 10, average 2.15 H/day): 50; ROS in the brains (ethidium fluorescence) versus blast exposure alone [4]: significantly reduced; Activity, total distance traveled in 10 minutes, versus sham [5, 8]: did not show abnormal activity; Percentage of time spent in the open arms, comparison of Sham, bmTBI, bmTBI+H2 [5, 8]: did not differ significantly; Gross motor function, latency on accelerating rotarod ([5]; 7 days after blast, 4% hydrogen gas 6 hours per day for 7 days, two-way ANOVA p>0.05): gross motor function was intact; Total immobility time during the 6-minute trial ([5]; bmTBI+H2 group versus control, bmTBI increased, one-way ANOVA F=6.94, p=0.0036): comparable immobility time to control mice (Sham); Latency to the first bout of immobility ([5]; bmTBI+H2 group versus control, one-way ANOVA F=6.42, p=0.0051): latencies comparable to the control (Sham) group; Correct choices (spatial working memory) ([5]; bmTBI+H2 group, Sham 62.6±1.8%, bmTBI 62.3±3.4%, mean±standard error, p>0.05): 60.4±3.4%; Depression-like behaviors induced by blast exposure ([5]; conclusion from tail suspension and forced swim tests): suppresses depression-like behaviors induced by blast exposure; Duration of interaction with an inanimate novel object, difference between groups ([5]; one-way ANOVA p>0.05): no difference; Time required to find the buried food, difference between groups ([5]; one-way ANOVA p>0.05): no difference was found in the olfactory test; Abnormal social behaviors induced by blast ([6]; conclusion from sociability, olfactory and novelty tests): suppressed the abnormal social behaviors induced by blast; Difference between interaction time with living mouse and with stuffed mouse ([6]; within bmTBI+H2 group, t-test p>0.05): no significant difference; Side effects of hydrogen [7]: no serious side effect

From patent US20230111180A1, “HYDROGEN CONTAINING COMPOSITION AND METHODS OF USING THE SAME” (MiZ Company Limited, priority 2017, published 2023)
